Results taken from paper PMC11472310, “Distinctive Immune Signatures Driven by Structural Alterations in Desmuramylpeptide NOD2 Agonists” (Journal of Medicinal Chemistry, 2024).
Where two headings read alike, the source gives them in different places.

Molecular target: T1, hNOD2 (Homo sapiens, UniProt Q9HC29)
T1 construct: host or cells: HEK-Blue NOD2 cells (HEK293)
Assay: HEK-Blue NOD2 cell line reporter assay (NF-κB-inducible SEAP)
Assay type: cell-based
Procedure: To assess the NOD2 agonistic potential of the synthesized desmuramylpeptides at a cellular level, we employed the HEK-Blue NOD2 cell line reporter assay, a validated and commercially available method. All synthesized compounds were evaluated for their dose-dependent activities to establish their EC50 values.
The HEK-Blue NOD1 and NOD2 cell line reporter assay was generated from HEK293 cells through cotransfection of the hNOD1 or hNOD2 gene, respectively, along with an NF-κB-inducible secreted embryonic alkaline phosphatase (SEAP) reporter gene. Upon activation of NOD1 or NOD2, NF-κB triggers the production of SEAP, which can be quantitatively measured colorimetrically. […] After 18 h of incubation at 37 °C with 5% CO2, SEAP activity was measured spectrophotometrically by absorbance at 630 nm (BioTek Synergy microplate reader; Winooski, VT, USA). EC50 values were determined using Prism software (version 9; GraphPad Software, CA, USA). Each experiment was conducted in duplicate and repeated in at least two independent biological replicates.

[1] = HEK-Blue NOD2 cells, 18 h, NF-κB transcriptional activity (SEAP), read-out: EC50 (nM), NOD2 agonistic activity

T1 sequence (Q9HC29 whole entry): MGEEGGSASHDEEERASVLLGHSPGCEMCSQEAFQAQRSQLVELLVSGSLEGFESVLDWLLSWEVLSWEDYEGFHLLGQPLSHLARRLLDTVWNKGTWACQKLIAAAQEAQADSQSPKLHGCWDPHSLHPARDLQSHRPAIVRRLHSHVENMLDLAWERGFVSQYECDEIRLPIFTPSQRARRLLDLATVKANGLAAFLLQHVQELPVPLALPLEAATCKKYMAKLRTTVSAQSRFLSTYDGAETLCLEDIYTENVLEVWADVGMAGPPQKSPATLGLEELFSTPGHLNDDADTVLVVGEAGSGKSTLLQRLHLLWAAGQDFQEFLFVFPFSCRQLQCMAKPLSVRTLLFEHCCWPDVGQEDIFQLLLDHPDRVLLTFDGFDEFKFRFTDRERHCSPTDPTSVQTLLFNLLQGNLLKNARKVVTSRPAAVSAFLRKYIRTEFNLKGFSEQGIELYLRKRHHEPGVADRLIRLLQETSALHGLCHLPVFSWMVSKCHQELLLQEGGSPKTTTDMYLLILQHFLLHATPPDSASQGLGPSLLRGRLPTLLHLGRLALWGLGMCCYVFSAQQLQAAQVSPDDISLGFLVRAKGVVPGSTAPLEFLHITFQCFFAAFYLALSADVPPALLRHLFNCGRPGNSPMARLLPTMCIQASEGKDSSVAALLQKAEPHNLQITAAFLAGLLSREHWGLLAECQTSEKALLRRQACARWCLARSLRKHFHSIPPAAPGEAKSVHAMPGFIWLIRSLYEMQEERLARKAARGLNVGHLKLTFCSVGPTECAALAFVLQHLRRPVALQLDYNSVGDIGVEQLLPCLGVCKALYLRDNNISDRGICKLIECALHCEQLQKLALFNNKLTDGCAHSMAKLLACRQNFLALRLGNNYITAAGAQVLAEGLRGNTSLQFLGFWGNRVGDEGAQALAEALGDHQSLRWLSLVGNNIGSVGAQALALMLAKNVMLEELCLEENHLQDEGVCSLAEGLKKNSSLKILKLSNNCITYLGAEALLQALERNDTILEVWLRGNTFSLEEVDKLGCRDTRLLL

Row | EC50 [1] [nM] | SMILES | further results
1 | 20.2 ± 1.2 | CCCCCC(=O)Oc1ccc(/C=C/C(=O)NCC(=O)N[C@H](C(=O)N[C@H](CCC(=O)OCC)C(=O)OCC)C(C)C)cc1OC [Compound 4, Diethyl ((E)-3-(4-(Hexanoyloxy)-3-methoxyphenyl)acryloyl)glycyl-L-valyl-D-glutamate] | –
2 | 25.5 ± 2.2 | CCCCCCCC(=O)Oc1ccc(/C=C/C(=O)NCC(=O)N[C@H](C(=O)N[C@H](CCC(=O)OCC)C(=O)OCC)C(C)C)cc1OC [Compound 5, Diethyl ((E)-3-(3-Methoxy-4-(octanoyloxy)phenyl)acryloyl)glycyl-L-valyl-D-glutamate] | –
3 | 24.8 ± 2.3 | CCCCCCCCC(=O)Oc1ccc(/C=C/C(=O)NCC(=O)N[C@H](C(=O)N[C@H](CCC(=O)OCC)C(=O)OCC)C(C)C)cc1OC [Compound 6] | –
4 | 30.6 ± 5.5 | CCCCCCCCCC(=O)Oc1ccc(/C=C/C(=O)NCC(=O)N[C@H](C(=O)N[C@H](CCC(=O)OCC)C(=O)OCC)C(C)C)cc1OC [Compound 7, Diethyl ((E)-3-(4-(Decanoyloxy)-3-methoxyphenyl)acryloyl)glycyl-L-valyl-D-glutamate] | –
5 | 69.5 ± 5.1 | CCCCCCCCCCCCCC(=O)Oc1ccc(/C=C/C(=O)NCC(=O)N[C@H](C(=O)N[C@H](CCC(=O)OCC)C(=O)OCC)C(C)C)cc1OC [Compound 8, Diethyl ((E)-3-(3-Methoxy-4-(tetradecanoyloxy)phenyl)acryloyl)glycyl-L-valyl-D-glutamate] | –
6 | 7200 ± 2640 | CCCCCCCCCCCCCCCCCC(=O)Oc1ccc(/C=C/C(=O)NCC(=O)N[C@H](C(=O)N[C@H](CCC(=O)OCC)C(=O)OCC)C(C)C)cc1OC [Compound 10] | EC50 (HEK-Blue NOD2 cells, 18 h, read-out: EC50, NOD2 agonistic activity (text)): 7200 nM
7 | 11.7 ± 2.8 | CCCCCC(C)C(=O)Oc1ccc(/C=C/C(=O)NCC(=O)N[C@H](C(=O)N[C@H](CCC(=O)OCC)C(=O)OCC)C(C)C)cc1OC (stereo partly drawn) [Compound 11, Diethyl ((E)-3-(3-Methoxy-4-((2-methylheptanoyl)oxy)phenyl)acryloyl)glycyl-L-valyl-D-glutamate] | –
8 | 21.6 ± 6.5 | CCCCC(CC)C(=O)Oc1ccc(/C=C/C(=O)NCC(=O)N[C@H](C(=O)N[C@H](CCC(=O)OCC)C(=O)OCC)C(C)C)cc1OC (stereo partly drawn) [Compound 12, Diethyl ((E)-3-(4-((2-ethylhexanoyl)oxy)-3-methoxyphenyl)acryloyl)glycyl-L-valyl-D-glutamate] | –
9 | 9.7 | CCCCCCC(CC)C(=O)Oc1ccc(/C=C/C(=O)NCC(=O)N[C@H](C(=O)N[C@H](CCC(=O)OCC)C(=O)OCC)C(C)C)cc1OC (stereo partly drawn) [Compound 13, Diethyl ((E)-3-(4-((2-Ethyloctanoyl)oxy)-3-methoxyphenyl)acryloyl)glycyl-L-valyl-D-glutamate] | EC50 (supplementary SMILES csv, read-out: HEK-blue hNOD2 EC50): 9.7 nM
10 | 19.4 ± 3.6 | CCCCCC(CCC)C(=O)Oc1ccc(/C=C/C(=O)NCC(=O)N[C@H](C(=O)N[C@H](CCC(=O)OCC)C(=O)OCC)C(C)C)cc1OC (stereo partly drawn) [Compound 14, Diethyl ((E)-3-(3-Methoxy-4-((2-propylheptanoyl)oxy)phenyl)acryloyl)glycyl-L-valyl-D-glutamate] | –
11 | 22.4 ± 5.9 | CCCCC(CCCC)C(=O)Oc1ccc(/C=C/C(=O)NCC(=O)N[C@H](C(=O)N[C@H](CCC(=O)OCC)C(=O)OCC)C(C)C)cc1OC [Compound 15, Diethyl ((E)-3-(4-((2-Butylhexanoyl)oxy)-3-methoxyphenyl)acryloyl)glycyl-L-valyl-D-glutamate] | –
12 | 25.8 ± 3.3 | CCOC(=O)CC[C@@H](NC(=O)[C@@H](NC(=O)CNC(=O)/C=C/c1ccc(OC(=O)CCCC2CCCCC2)c(OC)c1)C(C)C)C(=O)OCC [Compound 16, Diethyl ((E)-3-(4-((4-Cyclohexylbutanoyl)oxy)-3-methoxyphenyl)acryloyl)glycyl-L-valyl-D-glutamate] | –
13 | 88.6 ± 10.5 | CCCCCC(CCCCC)C(=O)Oc1ccc(/C=C/C(=O)NCC(=O)N[C@H](C(=O)N[C@H](CCC(=O)OCC)C(=O)OCC)C(C)C)cc1OC [Compound 17, Diethyl ((E)-3-(3-Methoxy-4-((2-pentylheptanoyl)oxy)phenyl)acryloyl)glycyl-L-valyl-D-glutamate] | drop of activity compared to 2 (EC50 ratio versus 2 (lauroyl)): 9 factor
14 | 422 ± 120 | CCCCCCCC/C=C\CCCCCCCC(=O)Oc1ccc(/C=C/C(=O)NCC(=O)N[C@H](C(=O)N[C@H](CCC(=O)OCC)C(=O)OCC)C(C)C)cc1OC [Compound 18, Diethyl ((E)-3-(3-Methoxy-4-(oleoyloxy)phenyl)acryloyl)glycyl-L-valyl-D-glutamate] | increase in potency compared to saturated counterpart 10 (EC50 ratio versus 10 (stearoyl)): 17 fold
15 | 198 ± 39.1 | CCCCC/C=C\C/C=C\CCCCCCCC(=O)Oc1ccc(/C=C/C(=O)NCC(=O)N[C@H](C(=O)N[C@H](CCC(=O)OCC)C(=O)OCC)C(C)C)cc1OC [Compound 19, Diethyl ((E)-3-(3-Methoxy-4-(((9Z,12Z)-octadeca-9,12-dienoyl)oxy)phenyl)acryloyl)glycyl-L-valyl-D-glutamate] | –
16 | 135 ± 28.9 | CC/C=C\C/C=C\C/C=C\CCCCCCCC(=O)Oc1ccc(/C=C/C(=O)NCC(=O)N[C@H](C(=O)N[C@H](CCC(=O)OCC)C(=O)OCC)C(C)C)cc1OC [Compound 20, Diethyl ((E)-3-(3-Methoxy-4-(((9Z,12Z,15Z)-octadeca-9,12,15-trienoyl)oxy)phenyl)acryloyl)glycyl-L-valyl-D-glutamate] | –
17 | 205 ± 28.6 | CCCCC/C=C\C/C=C\C/C=C\CCCCC(=O)Oc1ccc(/C=C/C(=O)NCC(=O)N[C@H](C(=O)N[C@H](CCC(=O)OCC)C(=O)OCC)C(C)C)cc1OC [Compound 21, Diethyl ((E)-3-(3-Methoxy-4-(((6Z,9Z,12Z)-octadeca-6,9,12-trienoyl)oxy)phenyl)acryloyl)glycyl-L-valyl-D-glutamate] | –
18 | 200 ± 50.8 | CC/C=C\C/C=C\C/C=C\C/C=C\C/C=C\C/C=C\CCC(=O)Oc1ccc(/C=C/C(=O)NCC(=O)N[C@H](C(=O)N[C@H](CCC(=O)OCC)C(=O)OCC)C(C)C)cc1OC [Compound 22, Diethyl ((E)-3-(4-(((4Z,7Z,10Z,13Z,16Z,19Z)-Docosa-4,7,10,13,16,19-hexaenoyl)oxy)-3-methoxyphenyl)acryloyl)glycyl-L-valyl-D-glutamate] | –
19 | 12.3 ± 1.5 | CCOC(=O)CC[C@@H](NC(=O)[C@@H](NC(=O)CNC(=O)/C=C/c1ccc(OC(=O)CCCCCCCCCCCCCO)c(OC)c1)C(C)C)C(=O)OCC [Compound 24, Diethyl ((E)-3-(4-((14-Hydroxytetradecanoyl)oxy)-3-methoxyphenyl)acryloyl)glycyl-L-valyl-D-glutamate] | boost of NOD2 agonistic activity compared to 8 (EC50 ratio versus unsubstituted myristoylated 8): 6 fold
20 | > 10000 | CCOC(=O)[C@@H](CCC(=O)NCCCCN)NC(=O)[C@@H](NC(=O)CNC(=O)/C=C/c1ccc(O)c(OC)c1)C(C)C [Compound 30, Ethyl N^5-(4-Aminobutyl)-N^2-((E)-3-(4-hydroxy-3-methoxyphenyl)acryloyl)glycyl-L-valyl-D-glutaminate] | –
21 | > 10000 | CCOC(=O)[C@@H](CCC(=O)NCCCNCCCCN)NC(=O)[C@@H](NC(=O)CNC(=O)/C=C/c1ccc(O)c(OC)c1)C(C)C [Compound 34, Ethyl N^5-(3-((4-Aminobutyl)amino)propyl)-N^2-((E)-3-(4-hydroxy-3-methoxyphenyl)acryloyl)glycyl-L-valyl-D-glutaminate] | –
